US20070185045A1, “Inhibitors of 2-oxoglutarate dioxygenase as gamma globin inducers” (priority 2006, published 2007)

How the values were obtained:
γ-globin = γ-globin mRNA expression by quantitative PCR in K562 cells; format: cell-based, human; conditions: 3 days, HPI-6 plus 100 μM HU (FIG. 1A)
Experimental: For studies utilizing the human erythroleukemia K562 cell line (ATCC), cells were grown and cultured in complete medium (RPM1 1640, 10% fetal calf serum (FCS), 100 U/ml penicillin and 0.1 mg/ml streptomycin) in a humidified incubator at 37° C., 95% air, 5% CO2. HPIs were titrated into duplicate cultures at dosage levels spanning more than 100-fold differences in concentration, and incubated from 24 to 96 hours prior to harvesting and quantitation of F-cells and HbF levels by flow cytometry.
Each PCR run included a standard curve and water blank. In addition, a melt curve was run after completion of each PCR run to assess the specificity of the amplification, γ-globin gene expression was normalized relative to the expression level of 18S ribosomal RNA for each sample.

[1] = system: CD34+ bone marrow progenitor cells; conditions: for increase in F-cells over untreated cultures, combination with HU: in combination with 5 μM HU, Phase II only (FIG. 3B)

O=C(O)CNC(=O)c1ncc2cc(Sc3ccccc3)ccc2c1O [HPI-6, [(4-Hydroxy-7-phenylsulfanyl-isoquinoline-3-carbonyl)-amino]-acetic acid]
γ-globin expression with added hydroxyurea (γ-globin): augmented

O=C(O)CNC(=O)c1nc(Cl)c2ccccc2c1O [HPI-1, N-((1-chloro-4-hydroxy-isoquinoline-3-carbonyl)-amino)-acetic acid]
HbF expression together with HU ([1]; 20 μM HPI-1 with HU (FIGS. 5A, 5B)): additive to the effects of HU | HbF expression compared to vehicle control (percent F-cells or MFI for HbF) ([1]; 20 μM, triplicate (FIGS. 5A, 5B)): increased HbF expression | increase in F-cells over untreated cultures, combination with HU [1]: 58%

O=C(O)CNC(=O)c1ncc2cc(Br)ccc2c1O [HPI-2, [(7-Bromo-4-hydroxy-isoquinoline-3-carbonyl)-amino]-acetic acid]
increase in F-cells over untreated cultures, combination with HU [1]: 29%
